The experiment has as its target T1, cathepsin B (Homo sapiens, UniProt P07858).
T1 construct: Conversion of procathepsin B in the sample into the active form of cathepsin B; from tissue; host or cells: serum sample
In words: enzyme assay of cathepsin B activity in deinhibited serum sample with substrate Z-Arg-Arg-AFC (fluorescence). It is filed as biochemical. The settings on record: inhibitor added to the enzyme assay after withdrawing the protease inhibitor; compared with the signal before withdrawing the inhibitor. On the procedure: 6) Measuring the activity of cathepsin B in the sample
To 110 μl of the serum samples, which have been treated as described, in 0.5 ml reaction vessels 110 μl of a solution of the substrate (70 μM Z-Arg-Arg-AFC) are added, the pH-value of which is set at pH=6 by phosphate buffer and which contains 5 mM EDTA and 10 mM DTE. After mixing the samples are incubated for 120 min at 37° C. Subsequently the reaction vessels are cooled down with ice, centrifuged for a short time so as to bring the water condensed at the cap of the reaction vessel back to the solution and then the fluorescence emission is recorded, either on a microtiter plate by means of a fluorescence reader or in a cuvette by means of a fluorimeter. The excitation wavelength is at about 400 nm, and a suitable detection wavelength is at about 505 nm.
Thus evidence is established that the value measured in the enzyme assay after withdrawing the inhibitor relates to cathepsin B which is set free.

As to `CCCNC(=O)[C@H]1O[C@@H]1C(=O)N[C@H](C(=O)N1CCC[C@H]1C(=O)O)[C@@H](C)CC` [CA-074], the “measurement signal of the enzyme assay after addition of the inhibitor” value is “the same as the measuring signal, which is obtained, when the enzyme assay is carried out before withdrawing the inhibitor”.

In the case of `CC(C)C[C@H](NC(=O)[C@H]1O[C@@H]1C(=O)O)C(=O)NCCCCN=C(N)N` [E 64], the “measurement signal of the enzyme assay after addition of the inhibitor” value is recorded as “the same as the measuring signal, which is obtained, when the enzyme assay is carried out before withdrawing the inhibitor”.

Values taken from patent US20130260391A1, “Method Of Determining The Protease Cathepsin B In A Biological Sample” (priority 2010, published 2013).
